According to US7632829B2, “Diazepan derivatives” (Hoffmann-La Roche Inc., priority 2006, dated 2009):

Molecular target: T1, human chemokine receptor 2 isoform B (Homo sapiens, UniProt P41597)
T1 construct: host or cells: CHOK1-CCR2B-A5 (CHO-K1)
T1 sequence (P41597 1-360 isoform P41597-2): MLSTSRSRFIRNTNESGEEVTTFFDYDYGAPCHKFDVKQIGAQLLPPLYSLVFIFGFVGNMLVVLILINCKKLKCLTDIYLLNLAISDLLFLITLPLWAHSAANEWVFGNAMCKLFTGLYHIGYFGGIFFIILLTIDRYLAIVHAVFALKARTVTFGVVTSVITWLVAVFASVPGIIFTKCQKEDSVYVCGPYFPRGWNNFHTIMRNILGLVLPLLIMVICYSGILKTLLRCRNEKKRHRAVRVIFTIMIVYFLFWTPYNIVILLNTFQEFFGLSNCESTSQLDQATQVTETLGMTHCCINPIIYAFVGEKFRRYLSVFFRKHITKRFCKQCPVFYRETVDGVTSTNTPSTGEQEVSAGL
Test: Calcium mobilization assay (FLIPR, CHOK1-CCR2B-A5 cells, 20 nM MCP-1)
Assay type: cell-based
Conditions: Ca mobilisation assay, CCR2, antagonist activity vs 20 nM MCP-1
Procedure, shortened: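 FLIPR Fluo-4 calcium readout in CHO-K1 cells stably overexpressing human CCR2B; compounds first monitored 80 s for agonist activity, then after 20-30 min at 30 °C challenged with 20 nM MCP-1. Response is max minus basal fluorescence; antagonist value is concentration giving 50% inhibition of specific calcium increase.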

| Structure (SMILES) | IC50 [nM] |
| --- | --- |
| CC1CCCN(CC(O)CCN2CCN(C(=O)/C=C/c3ccc(Cl)c(Cl)c3)CCC2=O)C1 (racemic) [Example 376] | 416 |
| CC1CCN(CC(O)CCN2CCN(C(=O)/C=C/c3ccc(Cl)c(Cl)c3)CCC2=O)CC1 (racemic) [Example 377] | 697 |
| O=C(/C=C/c1ccc(Cl)c(Cl)c1)N1CCC(=O)N(CCC(O)CN2CCCC(CO)C2)CC1 (racemic) [Example 378] | 1240 |
| O=C(/C=C/c1ccc(Cl)c(Cl)c1)N1CCC(=O)N(CCC(O)CN2CCC(CO)CC2)CC1 (racemic) [Example 379] | 1500 |
| CC1(CO)CCCN1CC(O)CCN1CCN(C(=O)/C=C/c2ccc(Cl)c(Cl)c2)CCC1=O (racemic) [Example 381] | 236 |
| O=C(/C=C/c1ccc(F)c(Cl)c1)N1CCC(=O)N(CCCCN2CCCC(O)C2)CC1 (racemic) [Example 383] | 198 |
| O=C(/C=C/c1ccc(F)c(Cl)c1)N1CCC(=O)N(CCCCN2CCCC(CO)C2)CC1 (racemic) [Example 385] | 310 |
| O=C(/C=C/c1ccc(F)c(Cl)c1)N1CCC(=O)N(CCCCN2CCCCC2CO)CC1 (racemic) [Example 387] | 584 |
| O=C(/C=C/c1ccc(F)c(Cl)c1)N1CCC(=O)N(CCCCN2CC[C@H](O)[C@H](F)C2)CC1 (racemic) [Example 390] | 1100 |
| COCC1CCCN(CCCCN2CCN(C(=O)/C=C/c3ccc(F)c(Cl)c3)CCC2=O)C1 (racemic) [Example 392] | 54 |
| O=C(/C=C/c1ccc(F)c(Cl)c1)N1CCC(=O)N(CCCCN2CCC(O)C2)CC1 (racemic) [Example 393] | 878 |
| O=C(/C=C/c1ccc(F)c(Cl)c1)N1CCC(=O)N(CCCCN2CC[C@@H](O)[C@H](F)C2)CC1 (racemic) [Example 394] | 551 |
| COC1CCCN(CCCCN2CCN(C(=O)/C=C/c3ccc(F)c(Cl)c3)CCC2=O)C1 (racemic) [Example 395] | 996 |
| CC1CN(CCCCN2CCN(C(=O)/C=C/c3ccc(F)c(Cl)c3)CCC2=O)CCC1O (racemic) [Example 400] | 264 |

Other lines, results leading:

| IC50 [nM] | Structure (SMILES) |
| --- | --- |
| 264 | CC1(CO)CCCCN1CCCCN1CCN(C(=O)/C=C/c2ccc(F)c(Cl)c2)CCC1=O (racemic) [Example 407] |
| 77 | CC1CCC(O)CN1CCCCN1CCN(C(=O)/C=C/c2ccc(Cl)c(F)c2)CCC1=O (racemic) [Example 413] |
| 65 | O=C(/C=C/c1ccc(Cl)c(F)c1)N1CCC(=O)N(CCCCN2CC(O)CCC2CO)CC1 (racemic) [Example 414] |
| 1470 | COCC1CCC(O)CN1CCCCN1CCN(C(=O)/C=C/c2ccc(Cl)c(F)c2)CCC1=O (racemic) [Example 418] |
| 250 | O=C(/C=C/c1ccc(Cl)c(F)c1)N1CCC(=O)N(CCCCN2CCC[C@H](O)[C@@H]2CO)CC1 (racemic) [Example 419] |
| 52 | CC1(C)CCN(CCCCN2CCN(C(=O)/C=C/c3ccc(Cl)c(F)c3)CCC2=O)CC1O (racemic) [Example 420] |
| 89 | O=C(/C=C/c1ccc(Cl)c(Cl)c1)N1CCC(=O)N(CCCCN2CCCC(CO)C2)CC1 (racemic) [Example 425] |
| 259 | O=C(/C=C/c1ccc(Cl)c(Cl)c1)N1CCC(=O)N(CCCCN2CCCCC2CO)CC1 (racemic) [Example 427, (rac)-1-[(E)-3-(3,4-Dichloro-phenyl)-acryloy]-4-[4-(2-hydroxymethyl-piperidin-1-yl)-butyl]-[1,4]diazepan-5-one] |
| 352 | O=C(/C=C/c1ccc(Cl)c(Cl)c1)N1CCC(=O)N(CCCCN2CC[C@@H](O)[C@@H](F)C2)CC1 (racemic) [Example 430, (rac,cis)-1-[(E)-3-(3,4-Dichloro-phenyl)-acryloyl]-4-[4-(3-fluoro-4-hydroxy-piperidin-1-yl)-butyl]-[1,4]diazepan-5-one] |
| 448 | CC1(O)CCCN(CCCCN2CCN(C(=O)/C=C/c3ccc(Cl)c(Cl)c3)CCC2=O)C1 (racemic) [Example 431] |
| 16 | COCC1CCCN(CCCCN2CCN(C(=O)/C=C/c3ccc(Cl)c(Cl)c3)CCC2=O)C1 (racemic) [Example 432] |
